Read-outs that look alike come from different tables or passages of the source.
What was measured:
[1] = system: production and secretion of NGF on L-M cells; assay: Promoting action for the production and secretion of NGF on L-M cells of mouse (ELISA); format: cell-based; details: for Ratio of NGF increase: 1440 min
Excerpt: Catecholamines have also been found in a relatively high concentration to accelerate these functions without being mediated by adrenergic receptors [Y. Furukawa et al., J. Biol. Chem., 261, 6039-6047 (1986)].
The compound having a high activity in Table 1, that is, the catechol derivative having a n-alkyl group in the 3 or 4 position on the ring has been observed an acute cell toxicity in higher concentrations. The toxicity was considered the result of two hydroxyl groups in the catechol structure. Then the hydroxyl groups were esterified or etherified and the resulting derivative was examined the effect on the activity for the production and secretion of NGF.
The experiment was performed according to the procedures of Y. Furukawa et al. which is described in J. Bis Chem., 261, 6039-6047 (1986).
The medium was cultured for 3 days at a temperature of 37° C. After completing the confluency (about 10^6 cells/well), the medium was changed to Medium 199 (0.5 ml/well) containing 0.5% bovine serum albumin (Fraction V, a product of Armour Co.). The sample of the derivative is contained in the medium at a prescribed concentration as illustrated in the Tables.

[2] = system: production and secretion of NGF in brain astroglial cells; assay: Promoting activity for the production and secretion of NGF in brain astroglial cells of mouse (ELISA)
Protocol: The experiment was performed by inducing the astroglial cells from mouse forebrain to culture system according to the procedures of S. Furukawa et al. which is described in Biochem. Biophys. Res. Commun., 136, 57-63 (1986).
That is, forebrains of 8-day old mice were dissected out and cut into small pieces. […] Cells and cell clamps were recovered by centrifugation at 200 xg for 5 minutes. They were cultured in Dulbecco modified Eagle's medium (a product of Gibco Co. hereinafter abbreviated as DMEM) containing 10% of fetal calf serum, […] of penicillin, and 50 μg/ml of streptomycin, for 10 to 14 days with medium changes every 3 days. After completing confluency, the cells were dissociated by trypsin treatment and recultured in new culture flasks. This procedure was repeated further twice and more. […] The cells will hereinafter be referred to as astroglial cells.
Astroglial cells were innoculated in 24-well plates having a well surface area of 2.1 cm^2 (a product of Falcon Co.) at a cell density of about 3×10^4 cells/well and cultured for 3 days in DMEM . medium supplemented with 10% of fetal calf serum. After completing confluency about 10^7 cells/well), the medium was changed to DMEM medium (0.5 ml/well) supplemented with 0.5% of bovine serum albumin ((fraction V) and cultured for 3 days. The culture was further continued with medium changes every 3 days. After cells were practically synchronized in the quiscent stage, the medium was changed to 0.5 ml of the medium supplemented with 0.5% of bovine serum albumin and containing a prescribed concentration of test sample as illustrated in Tables. […] Data are expressed as fold increase in NGF content over that in the absence of the test sample. […] Data are presented as means ±SE of four determinations.

Acute toxicity (LD50) = details: mouse, in vivo
Protocol: The catechol derivative having normal type saturated lower alkyl groups on the ring was administered by intravenous injection (i.v.), intraperitoneal injection (i.p.) or oral route (p.o.) to male ddy mice of 4-week old. The LD50 values (mg/kg) were measured by an ordinary method.

[3] = Mus musculus, 24 h, Table 1, 0.03 mM, 24 hours, mean ± SE of four determinations, read-out: Ratio of NGF increase
[4] = Mus musculus, 24 h, Table 1, 0.10 mM, 24 hours, mean ± SE of four determinations, read-out: Ratio of NGF increase
[5] = 24 h, read-out: Ratio of NGF increase, Table 3, 0.10 mM, 24 hours, mean ± SE of four determinations
[6] = 24 h, read-out: Ratio of NGF increase, Table 3, 0.25 mM, 24 hours, mean ± SE of four determinations
[7] = Mus musculus, 24 h, read-out: Ratio of NGF increase, 24-hr culture
[8] = Mus musculus, 48 h, read-out: Ratio of NGF increase, 48-hr culture
[9] = Mus musculus, 24 h, Table 2, 0.03 mM, 24-hr culture, read-out: Ratio of NGF increase, 24-hr culture
[10] = Mus musculus, 24 h, Table 2, 0.15 mM, 24-hr culture, read-out: Ratio of NGF increase, 24-hr culture
[11] = Mus musculus, 48 h, Table 2, 0.03 mM, 48-hr culture, read-out: Ratio of NGF increase, 48-hr culture
[12] = Mus musculus, 48 h, Table 2, 0.15 mM, 48-hr culture, read-out: Ratio of NGF increase, 48-hr culture
[13] = 24 h, read-out: Ratio of NGF increase, 24-hr culture, Table 4, 0.10 mM, 24-hr culture
[14] = 24 h, read-out: Ratio of NGF increase, 24-hr culture, Table 4, 0.25 mM, 24-hr culture
[15] = 48 h, read-out: Ratio of NGF increase, 48-hr culture, Table 4, 0.10 mM, 48-hr culture
[16] = 48 h, read-out: Ratio of NGF increase, 48-hr culture, Table 4, 0.25 mM, 48-hr culture
[17] = Mus musculus, 24 h, read-out: Ratio of NGF increase
[18] = 24 h, read-out: Ratio of NGF increase

| Compound | fold induction at 30 µM [1, 3] | fold induction at 100 µM [1, 4] | fold induction at 100 µM [2, 5] | fold induction at 250 µM [2, 6] | fold induction at 30 µM [1, 9] | fold induction at 150 µM [1, 10] | fold induction at 30 µM [1, 11] | fold induction at 150 µM [1, 12] | fold induction at 100 µM [2, 13] | fold induction at 250 µM [2, 14] | fold induction at 100 µM [2, 15] | fold induction at 250 µM [2, 16] | other results |
| --- | --- | --- | --- | --- | --- | --- | --- | --- | --- | --- | --- | --- | --- |
| CCc1ccc(O)c(O)c1C [R = Two H, R1 = Methyl, R2 = Ethyl] | 6.31 ± 0.39 | 3.19 ± 0.73 | 50.3 ± 6.27 | 26.2 ± 2.6 | – | – | – | – | – | – | – | – | Ratio of NGF increase ([1]; Table 1, 0.03 mM, 24 hours, mean ± SE of four determinations, 30 µM): 5.39 ± 0.31 fold; Ratio of NGF increase ([1]; Table 1, 0.10 mM, 24 hours, mean ± SE of four determinations, 100 µM): 5.22 ± 0.27 fold |
| COc1ccc(C)cc1OC [R = Two methyl, R1 = H, R2 = Methyl, reference compound] | – | – | – | – | – | – | – | – | – | – | – | – | fold induction at 30 µM [1, 7]: 1.04 ± 0.07; fold induction at 150 µM [1, 7]: 0.98 ± 0.06; fold induction at 30 µM [1, 8]: 1.03 ± 0.07; fold induction at 150 µM [1, 8]: 0.98 ± 0.02 |
| Cc1ccc2oc(=O)oc2c1 [CO-, R1 = H, R2 = Methyl, 4-methyl-o-phenylenecarbonate] | – | – | – | – | 4.39 ± 0.62 | 4.82 ± 0.55 | 7.54 ± 0.72 | 6.99 ± 0.52 | 52.4 ± 5.29 | 44.9 ± 4.25 | 73.4 ± 4.25 | 78.3 ± 6.5 | – |
| CCCc1c(C)ccc(O)c1O [R = Two H, R1 = n-Propyl, R2 = Methyl] | 6.09 ± 0.65 | 6.98 ± 0.51 | – | – | – | – | – | – | – | – | – | – | – |
| CNC[C@H](O)c1ccc(O)c(O)c1 [l-epinephrine, reference compound] | – | – | – | – | – | – | – | – | – | – | – | – | fold induction at 50 µM ([1]; Mus musculus, 24 h, read-out: activity (NGF increase), 0.05 mM): 6.29 ± 0.11; fold induction at 150 µM ([1]; Mus musculus, 24 h, read-out: activity (NGF increase), 0.15 mM): 14 ± 0.83; fold induction at 100 µM ([2]; 24 h, read-out: activity (NGF increase), 0.10 mM): 8.62 ± 1.21; fold induction at 250 µM ([2]; 24 h, read-out: activity (NGF increase), 0.25 mM): 14.6 ± 2.67 |
| Cc1ccc2oc(=O)c(=O)oc2c1 [CO.CO-, R1 = H, R2 = Methyl, 6-methyl-1,4-benzodioxine-2,3-dione] | – | – | – | – | 4.24 ± 0.58 | 4.62 ± 0.61 | 7.6 ± 0.43 | 7.03 ± 0.69 | 47.2 ± 3.98 | 50.6 ± 4.74 | 69.6 ± 3.25 | 70.2 ± 5.37 | – |
| CC(=O)Oc1ccc(C)cc1OC(C)=O [R = Two acetyl, R1 = H, R2 = Methyl] | – | – | – | – | 4.92 ± 0.94 | 4.21 ± 0.4 | 7.71 ± 0.86 | 6.27 ± 0.75 | 49.8 ± 6.44 | 41.2 ± 7.32 | 77.3 ± 6.52 | 82.4 ± 7.24 | – |
| CCCCc1ccc(O)c(O)c1C [R = Two H, R1 = Methyl, R2 = n-Butyl] | 6.87 ± 0.6 | 7.73 ± 0.53 | 49.8 ± 3.65 | 76.2 ± 6.64 | – | – | – | – | – | – | – | – | – |
| Cc1ccc2c(c1)OC(C)(C)O2 [C(CH3)2 -, R1 = H, R2 = Methyl, 5,2,2-trimethyl-1,3-benzodioxol] | – | – | – | – | 1.35 ± 0.12 | 1.22 ± 0.08 | 4.33 ± 1.05 | 3.86 ± 0.84 | 28.6 ± 2.23 | 33.7 ± 2.09 | 41.6 ± 2.21 | 55.2 ± 4.42 | – |
| CCCc1ccc(O)c(O)c1C [R = Two H, R1 = Methyl, R2 = n-Propyl] | 6.34 ± 0.46 | 7.25 ± 0.32 | 41.3 ± 2.55 | 61.6 ± 4.62 | – | – | – | – | – | – | – | – | – |
| Cc1cccc(O)c1O [R = Two H, R1 = Methyl, R2 = H] | – | – | 76.3 ± 6.34 | 5.02 ± 1.98 | – | – | – | – | – | – | – | – | fold induction at 30 µM [1, 17]: 8.34 ± 0.82; fold induction at 100 µM [1, 17]: 3.92 ± 1.23; LD50 (Acute toxicity (LD50); ip, read-out: LD50 i.p.): > 200 mg/kg; LD50 (Acute toxicity (LD50); iv, read-out: LD50 i.v.): > 50 mg/kg; LD50 (Acute toxicity (LD50); po, read-out: LD50 p.o.): > 500 mg/kg |
| Cc1c(C(C)(C)C)ccc(O)c1O [R = Two H, R1 = Methyl, R2 = tert-Butyl] | 2.82 ± 0.14 | 3.65 ± 0.39 | 9.65 ± 2.42 | 24.2 ± 2.73 | – | – | – | – | – | – | – | – | – |
| Oc1ccccc1O [R = Two H, R1 = H, R2 = H, Catechol] | – | – | – | – | – | – | – | – | – | – | – | – | fold induction at 30 µM [1, 17]: 1.03 ± 0.04; fold induction at 100 µM [1, 17]: 1.81 ± 0.09; fold induction at 30 µM [1, 7]: 1.15 ± 0.04; fold induction at 150 µM [1, 7]: 1.93 ± 0.12; fold induction at 30 µM [1, 8]: 1.31 ± 0.09; fold induction at 150 µM [1, 8]: 1.79 ± 0.2; fold induction at 100 µM [2, 18]: 2.51 ± 0.07; fold induction at 250 µM [2, 18]: 1.92 ± 0.09 |

From patent US5214034A, “Catechol derivatives, and preventive and remedial preparations for regressive disorders in the central nervous system containing the same” (priority 1986, dated 1993)
